What was measured:
Rac1 = Rac1 (Mus musculus, UniProt P63001); assay: Rac1 activity (Rac1-GTP/total Rac1) in hippocampal tissue by PAK-PBD pull-down and Western blot after drug administration; format: in vivo, APP/PS1 mice; conditions: APP/PS1 mice (eight-month-old); oral CS7171 50 mg/kg, CS7170 50 mg/kg, JKF-034 40 mg/kg once per day
Description: We first assayed Rac1 activity in hippocampal tissues from AD patients and healthy age-matched, non-demented controls (Detailed information is provided in Table 1). The levels of the guanosine triphosphate (GTP)-bound active form of Rac1 were measured using the p21-binding domain (PBD) pull-down assay. The GTP-bound active form of Rac1 was pulled down through the interactive p21-activated kinase (PAK) fragment using PAK-PBD beads and measured using a Western blot assay (Fig. 1A), as described in previous studies (Shuai et al., [2010]; Liu et al., [2016]) from our laboratory and studies conducted by other research groups (Sander et al., [1998]; Barnes et al., [2008]). The total amount of Rac1 and actin were also evaluated using the Western blot analyses (See MATERIALS AND METHODS). […] Since there were no significant differences in total Rac1 levels between the experimental and control groups (See representative Western blot in all relevant figures), the ratio of Rac1-GTP to total Rac1 was taken as a measure of Rac1 activity. […] Consistent with this observation, Rac1 activity was also elevated in the hippocampus of APP/PS1 mice at different age (Fig. 1D). […] This increase was more pronounced in older flies (Fig. S1F).
Mice were treated with EHop-016 (10 mg/kg), CS7170 (50 mg/kg), CS7171 (50 mg/kg), and JKF-034 (40 mg/kg). These drugs were dissolved in saline (0.9% NaCl) containing 0.5% Tween-80 (Sigma P4780). Each mouse received 200 μL of the solution by intragastric administration once per day (administered at 9:00 am). The drug administration was started seven days before the beginning of the Morris water maze (MWM) task and was continued until the end of the assay. All control groups were fed with vehicle solution.
The hippocampal tissues from human subjects and mice were harvested and stored in a liquid nitrogen tank for biochemical assay. The tissues were homogenized in cold lysis buffer (Merck-Millipore, 20-168). The insoluble debris were removed after centrifugation at 13,000 rpm (for 10 min, at 4 °C). For GTP-bound Rac/Cdc42, lysates were incubated with GST-tagged PAK (p21-activated kinase)-PBD agarose beads (Cytoskeleton, PAK02) overnight at 4 °C. On the second day, the beads were washed three times with lysis buffer before subjecting them to SDS-PAGE (15%) and transferring them onto nitrocellulose membranes (Millipore, HATF00010). The membranes were incubated with primary antibodies (for Rac1: BD Transduction Laboratories, #610650, 1:2,000 dilution; for Cdc42, Santa Cruz Biotechnology, lot No. sc-8401, 1:500 dilution) overnight at 4 °C and with HRP-conjugated goat anti-mouse IgG (Cell Signaling Technology, #7076) for 1 h at room temperature. Intensities of the detected bands were analyzed using ImageJ software (National Institutes of Health). The total amount of Rac1 in the lysate was detected using a routine Western blot procedure. RhoA-GTP levels were measured by using the Rho-GTP monoclonal antibody (New East, lot No. 26904, Dilution: 1:1,000). Information regarding the other antibodies used is as follows: anti-RhoA (67B9), Cell Signaling, lot No. #2117, dilution: 1:1,000; anti-Actin, Clone C4, Millipore, lot No. #3018859, dilution: 1:2,000; anti-Amyloid 1-42 6E10, BioLegend, lot No. 803001, dilution: 1:1,000; anti-Phospho-PAK1 (Ser144)/PAK2 (Ser141), Cell Signaling, lot No. #2606, dilution: 1:1,000.

MDR-MDCK cell line = assay: In vitro blood-brain barrier permeability assay; format: in vitro ADME; conditions: 5 μmol/L, 37 °C, 90 min
Description: The MDR-MDCK cell line can be used as a fast blood-brain barrier (BBB) model to aid drug discovery (Wang et al., [2005]). In this study, the MDR-MDCK cell line was used to evaluate the permeability coefficients of CS7171 and JKF-034. Briefly, CS7171 and JKF-034 were prepared to final concentrations of 5 μmol/L. The cells were dosed on the basolateral side (B-A) and apical side (A-B) and incubated at 37 °C for 90 min. Each test was performed in duplicate. The apparent permeability coefficient, Papp, was calculated using the following formula: Papp=VA/Area×Time×(drugacceptor,90-min/drugdonor,0-min×Dilution Factor
VA is the volume in the acceptor well, Area is the surface area of the membrane, Time is the total transport time in seconds, [drug]donor, 0-min is the donor drug concentration measured at 0 min; [drug]acceptor, 90-min is the acceptor drug concentration measured at 90 min; dilution factor is the degree of dilution of the donor sample before loading to LC-MS/MS.

[1] = In vitro metabolic stability in human liver microsomes; format: in vitro ADME
Description: Measurements of metabolic stability can be performed with liver microsomes, which are known to contain the major drug-metabolizing enzymes and UDP-glucuronosyltransferase (Baranczewski et al., [2006]). The in vitro metabolic stability levels of CS7171 and JKF-034 were measured using human, monkey, and mouse liver microsomes. The metabolic half-time (T1/2) and intrinsic clearance (Clint) were assayed using LC-MS analysis. Ketanserin is a potent, orally effective antagonist of endogenous serotonin. Its pharmacological profile is well studied (Brogden and Sorkin, [1990]). In this study, we used ketanserin as a control. If the T1/2 of the tested compound was 30–120 min, the compound was considered to show moderate metabolism in liver microsomes. If the T1/2 value was less than 30 min, the compound was considered to be susceptible to metabolism in liver microsomes.

Row | SMILES | hippocampal Rac1 activity (Rac1-GTP/total Rac1) (Rac1) | Papp Mean, A-B (MDR-MDCK cell line) | Papp Mean, B-A (MDR-MDCK cell line) | Clint [1] | T1/2 [1]
1 | O=S(=O)(c1ccccc1)N1CCN(Cc2ccccc2)CC1 [JKF-034] | inhibited Rac1 activity | 57.33 10^−6 cm/s | 32.79 10^−6 cm/s | 95.92 mL/min/kg | 18.12 min
2 | O=C1NN(c2ccc(Cl)c(Cl)c2)C(=O)C1=Cc1ccc(O)c(N(O)O)c1 [CS7171] | inhibited hippocampal Rac1 activity | 7.91 10^−6 cm/s | 3.61 10^−6 cm/s | 407.54 mL/min/kg | 4.27 min
